In PubChem BioAssay (NCI):
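96-well plates; 48 h exposure; 5 concentrations. Endpoints by linear interpolation between flanking doses. Not reached: highest tested concentration assigned. At the GI50, growth is halved. At the TGI there is no net growth.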

Key:
Assay in all cases: DTP human tumour cell line panel, 48 h
786-0 renal = tested on: 786-0 renal
A498 renal = tested on: A498 renal
A549 NSCLC = tested on: A549 NSCLC
ACHN renal = tested on: ACHN renal
CAKI-1 renal = tested on: CAKI-1 renal
CCRF-CEM leukemia = tested on: CCRF-CEM leukemia
COLO 205 colon = tested on: COLO 205 colon
DLD-1 colon = tested on: DLD-1 colon
DMS 114 small cell lung = tested on: DMS 114 small cell lung
DMS 273 small cell lung = tested on: DMS 273 small cell lung
EKVX NSCLC = tested on: EKVX NSCLC
HCC-2998 colon = tested on: HCC-2998 colon
HCT-116 colon = tested on: HCT-116 colon
HCT-15 colon = tested on: HCT-15 colon
HL-60(TB) leukemia = tested on: HL-60(TB) leukemia
HOP-62 NSCLC = tested on: HOP-62 NSCLC
HOP-92 NSCLC = tested on: HOP-92 NSCLC
HT29 colon = tested on: HT29 colon
IGROV1 ovarian = tested on: IGROV1 ovarian
K-562 leukemia = tested on: K-562 leukemia
KM12 colon = tested on: KM12 colon
KM20L2 colon = tested on: KM20L2 colon
LOX IMVI melanoma = tested on: LOX IMVI melanoma
LXFL 529 NSCLC = tested on: LXFL 529 NSCLC
M14 melanoma = tested on: M14 melanoma
M19-MEL melanoma = tested on: M19-MEL melanoma
MALME-3M melanoma = tested on: MALME-3M melanoma
MOLT-4 leukemia = tested on: MOLT-4 leukemia
NCI-H226 lung = tested on: NCI-H226 lung
NCI-H23 lung = tested on: NCI-H23 lung
NCI-H460 lung = tested on: NCI-H460 lung
NCI-H522 lung = tested on: NCI-H522 lung
OVCAR-3 ovarian = tested on: OVCAR-3 ovarian
OVCAR-4 ovarian = tested on: OVCAR-4 ovarian
OVCAR-5 ovarian = tested on: OVCAR-5 ovarian
OVCAR-8 ovarian = tested on: OVCAR-8 ovarian
RPMI-8226 leukemia = tested on: RPMI-8226 leukemia
RXF 393 renal = tested on: RXF 393 renal
SF-268 CNS = tested on: SF-268 CNS
SF-295 CNS = tested on: SF-295 CNS
SF-539 CNS = tested on: SF-539 CNS
SK-MEL-2 melanoma = tested on: SK-MEL-2 melanoma
SK-MEL-28 melanoma = tested on: SK-MEL-28 melanoma
SK-MEL-5 melanoma = tested on: SK-MEL-5 melanoma
SK-OV-3 ovarian = tested on: SK-OV-3 ovarian
SN12C renal = tested on: SN12C renal
SNB-19 CNS = tested on: SNB-19 CNS
SNB-75 CNS = tested on: SNB-75 CNS
SW-620 colon = tested on: SW-620 colon
TK-10 renal = tested on: TK-10 renal
U251 CNS = tested on: U251 CNS
UACC-257 melanoma = tested on: UACC-257 melanoma
UACC-62 melanoma = tested on: UACC-62 melanoma
UO-31 renal = tested on: UO-31 renal
HOP-18 NSCLC = tested on: HOP-18 NSCLC
RXF-631 renal = tested on: RXF-631 renal
SNB-78 CNS = tested on: SNB-78 CNS
SR leukemia = tested on: SR leukemia

For `[Ce+3].[Cl-].[O-]/N=C(\c1ccccc1)c1ccccn1.[O-]/N=C(\c1ccccc1)c1ccccn1.[O-]/N=C(\c1ccccc1)c1ccccn1`, the GI50 (786-0 renal) was 47 µM, the TGI (786-0 renal) was > 100 µM and the GI50 (A498 renal) was 54 µM. For the same compound, the TGI (A498 renal) was > 100 µM, the GI50 (A549 NSCLC) was 42.4 µM and the TGI (A549 NSCLC) was > 100 µM. The GI50 (ACHN renal) was 48.9 µM, the TGI (ACHN renal) was > 100 µM and the GI50 (CAKI-1 renal) was 32.4 µM. The TGI (CAKI-1 renal) was > 100 µM, the GI50 (CCRF-CEM leukemia) was 29.3 µM and the TGI (CCRF-CEM leukemia) was > 100 µM. The GI50 (COLO 205 colon) was 33.1 µM, the TGI (COLO 205 colon) was > 100 µM and the GI50 (DLD-1 colon) was 40 µM. The TGI (DLD-1 colon) was > 100 µM, the GI50 (DMS 114 small cell lung) was 28.3 µM and the TGI (DMS 114 small cell lung) was 85 µM. For the same compound, the GI50 (DMS 273 small cell lung) was 31.9 µM, the TGI (DMS 273 small cell lung) was > 100 µM and the GI50 (EKVX NSCLC) was 30.2 µM. The TGI (EKVX NSCLC) was > 100 µM, the GI50 (HCC-2998 colon) was 35.3 µM and the TGI (HCC-2998 colon) was > 100 µM. For the same compound, the GI50 (HCT-116 colon) was 33.8 µM, the TGI (HCT-116 colon) was > 100 µM and the GI50 (HCT-15 colon) was 38.1 µM. The TGI (HCT-15 colon) was > 100 µM, the GI50 (HL-60(TB) leukemia) was 18.7 µM and the TGI (HL-60(TB) leukemia) was 60.2 µM. The GI50 (HOP-62 NSCLC) was 30.3 µM, the TGI (HOP-62 NSCLC) was > 100 µM and the GI50 (HOP-92 NSCLC) was 25.1 µM. For the same compound, the TGI (HOP-92 NSCLC) was > 100 µM, the GI50 (HT29 colon) was 72 µM and the TGI (HT29 colon) was > 100 µM. For the same compound, the GI50 (IGROV1 ovarian) was 39.6 µM, the TGI (IGROV1 ovarian) was > 100 µM and the GI50 (K-562 leukemia) was 36.3 µM. For the same compound, the TGI (K-562 leukemia) was > 100 µM, the GI50 (KM12 colon) was 46.8 µM and the TGI (KM12 colon) was > 100 µM. The GI50 (KM20L2 colon) was > 100 µM, the TGI (KM20L2 colon) was > 100 µM and the GI50 (LOX IMVI melanoma) was 26 µM. The TGI (LOX IMVI melanoma) was 64.7 µM, the GI50 (LXFL 529 NSCLC) was 44.4 µM and the TGI (LXFL 529 NSCLC) was > 100 µM. For the same compound, the GI50 (M14 melanoma) was 35.7 µM, the TGI (M14 melanoma) was > 100 µM and the GI50 (M19-MEL melanoma) was 35.8 µM. The TGI (M19-MEL melanoma) was > 100 µM, the GI50 (MALME-3M melanoma) was 69.8 µM and the TGI (MALME-3M melanoma) was > 100 µM. For the same compound, the GI50 (MOLT-4 leukemia) was 27.7 µM, the TGI (MOLT-4 leukemia) was > 100 µM and the GI50 (NCI-H226 lung) was 21.5 µM. For the same compound, the TGI (NCI-H226 lung) was 72 µM, the GI50 (NCI-H23 lung) was 59.8 µM and the TGI (NCI-H23 lung) was > 100 µM. For the same compound, the GI50 (NCI-H460 lung) was 47.1 µM, the TGI (NCI-H460 lung) was > 100 µM and the GI50 (NCI-H522 lung) was 21.9 µM. The TGI (NCI-H522 lung) was 73.6 µM, the GI50 (OVCAR-3 ovarian) was 21.4 µM and the TGI (OVCAR-3 ovarian) was 90.3 µM. For the same compound, the GI50 (OVCAR-4 ovarian) was 55 µM, the TGI (OVCAR-4 ovarian) was > 100 µM and the GI50 (OVCAR-5 ovarian) was > 100 µM. For the same compound, the TGI (OVCAR-5 ovarian) was > 100 µM, the GI50 (OVCAR-8 ovarian) was 37.9 µM and the TGI (OVCAR-8 ovarian) was > 100 µM. For the same compound, the GI50 (RPMI-8226 leukemia) was 59.7 µM, the TGI (RPMI-8226 leukemia) was > 100 µM and the GI50 (RXF 393 renal) was 34.4 µM. The TGI (RXF 393 renal) was 96.3 µM, the GI50 (SF-268 CNS) was 44.4 µM and the TGI (SF-268 CNS) was > 100 µM. For the same compound, the GI50 (SF-295 CNS) was 37.2 µM, the TGI (SF-295 CNS) was > 100 µM and the GI50 (SF-539 CNS) was 31 µM. For the same compound, the TGI (SF-539 CNS) was 91.9 µM, the GI50 (SK-MEL-2 melanoma) was 30.9 µM and the TGI (SK-MEL-2 melanoma) was 76.6 µM. For the same compound, the GI50 (SK-MEL-28 melanoma) was 37.9 µM, the TGI (SK-MEL-28 melanoma) was > 100 µM and the GI50 (SK-MEL-5 melanoma) was 28.8 µM. The TGI (SK-MEL-5 melanoma) was 85.8 µM, the GI50 (SK-OV-3 ovarian) was 37.2 µM and the TGI (SK-OV-3 ovarian) was > 100 µM. The GI50 (SN12C renal) was 47.9 µM, the TGI (SN12C renal) was > 100 µM and the GI50 (SNB-19 CNS) was 42.6 µM. For the same compound, the TGI (SNB-19 CNS) was > 100 µM, the GI50 (SNB-75 CNS) was 15.1 µM and the TGI (SNB-75 CNS) was 66 µM. For the same compound, the GI50 (SW-620 colon) was 46.1 µM, the TGI (SW-620 colon) was > 100 µM and the GI50 (TK-10 renal) was 51.4 µM. For the same compound, the TGI (TK-10 renal) was > 100 µM, the GI50 (U251 CNS) was > 100 µM and the TGI (U251 CNS) was > 100 µM. For the same compound, the GI50 (UACC-257 melanoma) was 38 µM, the TGI (UACC-257 melanoma) was > 100 µM and the GI50 (UACC-62 melanoma) was 39.7 µM. For the same compound, the TGI (UACC-62 melanoma) was > 100 µM, the GI50 (UO-31 renal) was 28.1 µM and the TGI (UO-31 renal) was 82.9 µM.

With `NC1=NN(c2ccccc2)C(=O)C1C(=O)C(=O)NC1C2CC3CC(C2)CC1C3` (stereo unspecified) the TGI (786-0 renal) was > 100 µM, the TGI (A549 NSCLC) was > 100 µM and the TGI (ACHN renal) was > 100 µM. For the same compound, the TGI (CCRF-CEM leukemia) was > 100 µM, the TGI (COLO 205 colon) was > 100 µM and the TGI (DLD-1 colon) was > 100 µM. For the same compound, the TGI (DMS 114 small cell lung) was > 100 µM, the TGI (DMS 273 small cell lung) was > 100 µM and the TGI (EKVX NSCLC) was > 100 µM. The TGI (HCC-2998 colon) was > 100 µM, the TGI (HCT-116 colon) was > 100 µM and the TGI (HCT-15 colon) was > 100 µM. For the same compound, the TGI (HL-60(TB) leukemia) was > 100 µM, the TGI (HOP-18 NSCLC) was > 100 µM and the TGI (HOP-62 NSCLC) was > 100 µM. For the same compound, the TGI (HOP-92 NSCLC) was > 100 µM, the TGI (HT29 colon) was > 100 µM and the TGI (IGROV1 ovarian) was > 100 µM. The TGI (K-562 leukemia) was > 100 µM, the TGI (KM12 colon) was > 100 µM and the TGI (KM20L2 colon) was > 100 µM. For the same compound, the TGI (LOX IMVI melanoma) was > 100 µM, the TGI (LXFL 529 NSCLC) was > 100 µM and the TGI (M14 melanoma) was > 100 µM. For the same compound, the TGI (M19-MEL melanoma) was > 100 µM, the TGI (MALME-3M melanoma) was > 100 µM and the TGI (MOLT-4 leukemia) was > 100 µM. The TGI (NCI-H226 lung) was > 100 µM, the TGI (NCI-H23 lung) was > 100 µM and the TGI (NCI-H460 lung) was > 100 µM. For the same compound, the TGI (OVCAR-3 ovarian) was > 100 µM, the TGI (OVCAR-4 ovarian) was > 100 µM and the TGI (OVCAR-5 ovarian) was > 100 µM. For the same compound, the TGI (OVCAR-8 ovarian) was > 100 µM, the TGI (RXF 393 renal) was > 100 µM and the TGI (RXF-631 renal) was > 100 µM. For the same compound, the TGI (SF-268 CNS) was > 100 µM, the TGI (SF-295 CNS) was > 100 µM and the TGI (SF-539 CNS) was > 100 µM. For the same compound, the TGI (SK-MEL-2 melanoma) was > 100 µM, the TGI (SK-MEL-28 melanoma) was > 100 µM and the TGI (SK-MEL-5 melanoma) was > 100 µM. For the same compound, the TGI (SK-OV-3 ovarian) was > 100 µM, the TGI (SN12C renal) was > 100 µM and the TGI (SNB-19 CNS) was > 100 µM. The TGI (SNB-78 CNS) was > 100 µM, the TGI (SR leukemia) was > 100 µM and the TGI (SW-620 colon) was > 100 µM. The TGI (TK-10 renal) was > 100 µM, the TGI (U251 CNS) was > 100 µM and the TGI (UACC-257 melanoma) was > 100 µM. The TGI (UACC-62 melanoma) was > 100 µM and the TGI (UO-31 renal) was > 100 µM.
